Measured values reported in ChEMBL document CHEMBL5032530, “Discovery of Benzocyclic Sulfone Derivatives as Potent CXCR2 Antagonists for Cancer Immunotherapy” (J Med Chem, 2021).
The source made the active and inactive calls. The calls are words filed in the database; no cut-off is given here.

How the values were obtained:
[1] = AUC (0 to t) in ICR mouse at 30 mg/kg, po measured upto 48 hrs; type: ADME, organism-based; parameters: route oral, dose 30 mg/kg, time <=48; details: in vivo
[2] = Oral bioavailability in ICR mouse at 30 mg/kg measured upto 48 hrs; type: ADME, organism-based; details: in vivo
Neutrophil = assay: In vivo antagonist activity at CXCR2 in carrageenan-induced C57BL/6 mouse air pouch inflammation model assessed as reduction in neutrophil infiltration into air pouch at 30 mg/kg, po bid administered after 3 days of carrageenan treatment for 3 days; type: functional, organism-based; details: time 3.0 day
[3] = biological target: C-X-C chemokine receptor type 6 (Homo sapiens) (UniProt O00574); assay: Agonist activity against CXCR6 (unknown origin) assessed as induction of beta-arrestin 2 recruitment at 10 microM by beta arrestin assay relative to control; type: functional
[4] = biological target: C-X-C chemokine receptor type 6 (Homo sapiens) (UniProt O00574); assay: Antagonist activity against CXCR6 (unknown origin) assessed as inhibition of beta-arrestin 2 recruitment at 10 microM by beta arrestin assay relative to control; type: functional; parameters: scale not given: the % may be the effect or the level left
[5] = biological target: C-C chemokine receptor type 1 (Homo sapiens) (UniProt P32246); assay: Agonist activity against CCR1 (unknown origin) assessed as induction of beta-arrestin 2 recruitment at 10 microM by beta arrestin assay relative to control; type: functional
[6] = AUC (0 to infinity) in ICR mouse at 30 mg/kg, po measured upto 48 hrs; type: ADME, organism-based; parameters: route oral, dose 30 mg/kg, time <=48; details: ICR, in vivo
[7] = biological target: C-X-C chemokine receptor type 4 (Homo sapiens) (UniProt P61073); assay: Antagonist activity against CXCR4 (unknown origin) assessed as inhibition of beta-arrestin 2 recruitment at 10 microM by beta arrestin assay relative to control; type: functional; parameters: scale not given: the % may be the effect or the level left
[8] = biological target: CX3C chemokine receptor 1 (Homo sapiens) (UniProt P49238); assay: Antagonist activity against CX3CR1 (unknown origin) assessed as inhibition of beta-arrestin 2 recruitment at 10 microM by beta arrestin assay relative to control; type: functional; parameters: scale not given: the % may be the effect or the level left
[9] = biological target: T1, C-X-C chemokine receptor type 2 (Homo sapiens, UniProt P25025); assay: Antagonist activity at human CXCR2 expressed in HEK293 cells assessed as inhibition of CXCL8-induced beta-arrestin recruitment preincubated for 30 mins followed by addition of agonist incubated for 90 mins by beta arrestin assay; type: functional, cell-based
T1 sequence (P25025 whole entry): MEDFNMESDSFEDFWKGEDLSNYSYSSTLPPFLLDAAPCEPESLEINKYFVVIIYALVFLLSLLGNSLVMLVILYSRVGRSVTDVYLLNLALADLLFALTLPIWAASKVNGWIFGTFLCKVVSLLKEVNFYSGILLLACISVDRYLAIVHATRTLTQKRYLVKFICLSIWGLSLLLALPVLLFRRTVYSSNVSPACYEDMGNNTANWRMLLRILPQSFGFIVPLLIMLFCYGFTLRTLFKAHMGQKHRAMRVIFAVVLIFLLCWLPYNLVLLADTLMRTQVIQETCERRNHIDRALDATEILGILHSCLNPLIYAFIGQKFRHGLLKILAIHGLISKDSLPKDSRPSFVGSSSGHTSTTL

BXPC-3 = assay: Cytotoxicity against human BxPC3 cells assessed as reduction in cell viability measured after 72 hrs by CCK8 assay; type: cell-based; details: BXPC-3, 72 h
Panc02 [10] = assay: Antitumour activity against mouse Panc02 cells xenografted in mouse assessed as change in CD45 expressing immune cells infiltration into tumor tissue at 10 mg/kg, po bid measured after 15 days by flow cytometry analysis (reference value: 2.3%); type: functional; details: time 15 day
[11] = biological target: C-X-C chemokine receptor type 5 (Homo sapiens) (UniProt P32302); assay: Agonist activity against CXCR5 (unknown origin) assessed as induction of beta-arrestin 2 recruitment at 10 microM by beta arrestin assay relative to control; type: functional
[12] = biological target: CX3C chemokine receptor 1 (Homo sapiens) (UniProt P49238); assay: Agonist activity against CX3CR1 (unknown origin) assessed as induction of beta-arrestin 2 recruitment at 10 microM by beta arrestin assay relative to control; type: functional
[13] = biological target: Chemerin-like receptor 1 (Homo sapiens) (UniProt Q99788); assay: Agonist activity against CMKLR1 (unknown origin) assessed as induction of beta-arrestin 2 recruitment at 10 microM by beta arrestin assay relative to control; type: functional
[14] = Cmax in ICR mouse at 30 mg/kg, po measured upto 48 hrs; type: ADME, organism-based; parameters: route oral, dose 30 mg/kg, time <=48; details: in vivo
Panc02 [15] = assay: Antitumour activity against mouse Panc02 cells xenografted in mouse assessed as change in CD11b expressing immune cells infiltration into tumor tissue using LY6C antibody at 10 mg/kg, po bid measured after 15 days by flow cytometry analysis (reference value: 20.5%); type: functional; details: time 15 day
[16] = Half life in ICR mouse at 3 mg/kg, iv measured upto 48 hrs; type: ADME, organism-based; details: in vivo
Panc02 [17] = assay: Cytotoxicity against mouse Panc02 cells assessed as reduction in cell viability measured after 72 hrs by CCK8 assay; type: cell-based; details: panc02, 72 h
[18] = biological target: Atypical chemokine receptor 3 (Homo sapiens) (UniProt P25106); assay: Agonist activity against CXCR7 (unknown origin) assessed as induction of beta-arrestin 2 recruitment at 10 microM by beta arrestin assay relative to control; type: functional
[19] = biological target: C-C chemokine receptor type 1 (Homo sapiens) (UniProt P32246); assay: Antagonist activity against CCR1 (unknown origin) assessed as inhibition of beta-arrestin 2 recruitment at 10 microM by beta arrestin assay relative to control; type: functional; parameters: scale not given: the % may be the effect or the level left; details: filed as antagonist
[20] = biological target: T1, C-X-C chemokine receptor type 2; assay: Displacement of [I-125]-interleukin-8 against human recombinant CXCR2 expressed in CHO-K1 cells incubated for 60 mins by radio ligand binding assay; type: cell-based
[21] = Clearance in ICR mouse at 3 mg/kg, iv measured upto 48 hrs; type: ADME, organism-based; details: in vivo
MIA PaCa-2 = assay: Cytotoxicity against human MIA PaCa-2 cells assessed as reduction in cell viability measured after 72 hrs by CCK8 assay; type: cell-based; details: MIA PaCa-2, 72 h
[22] = biological target: C-C chemokine receptor type 9 (Homo sapiens) (UniProt P51686); assay: Agonist activity against CCR9 (unknown origin) assessed as induction of beta-arrestin 2 recruitment at 10 microM by beta arrestin assay relative to control; type: functional
[23] = biological target: C-C chemokine receptor type 8 (Homo sapiens) (UniProt P51685); assay: Antagonist activity against CCR8 (unknown origin) assessed as inhibition of beta-arrestin 2 recruitment at 10 microM by beta arrestin assay relative to control; type: functional; parameters: scale not given: the % may be the effect or the level left
[24] = biological target: C-C chemokine receptor type 6 (Homo sapiens) (UniProt P51684); assay: Antagonist activity against CCR6 (unknown origin) assessed as inhibition of beta-arrestin 2 recruitment at 10 microM by beta arrestin assay relative to control; type: functional; parameters: scale not given: the % may be the effect or the level left
[25] = biological target: C-X-C chemokine receptor type 3 (Homo sapiens) (UniProt P49682); assay: Antagonist activity against CXCR3 (unknown origin) assessed as inhibition of beta-arrestin 2 recruitment at 10 microM by beta arrestin assay relative to control; type: functional; parameters: scale not given: the % may be the effect or the level left
[26] = Apparent volume of distribution in ICR mouse at 30 mg/kg, po measured upto 48 hrs; type: ADME, organism-based; details: in vivo
[27] = biological target: C-C chemokine receptor type 4 (Homo sapiens) (UniProt P51679); assay: Antagonist activity against CCR4 (unknown origin) assessed as inhibition of beta-arrestin 2 recruitment at 10 microM by beta arrestin assay relative to control; type: functional; parameters: scale not given: the % may be the effect or the level left
[28] = Tmax in ICR mouse at 3 mg/kg, iv measured upto 48 hrs; type: ADME, organism-based; details: in vivo
Panc02 [29] = assay: Antitumour activity against mouse Panc02 cells xenografted in mouse assessed as reduction in infiltration of neutrophils into tumor tissue at 3 mg/kg, po bid measured after 15 days by flow cytometry analysis; type: functional, organism-based; details: time 15.0 day

Sequence of CX3C chemokine receptor 1 (Homo sapiens) (P49238 whole entry): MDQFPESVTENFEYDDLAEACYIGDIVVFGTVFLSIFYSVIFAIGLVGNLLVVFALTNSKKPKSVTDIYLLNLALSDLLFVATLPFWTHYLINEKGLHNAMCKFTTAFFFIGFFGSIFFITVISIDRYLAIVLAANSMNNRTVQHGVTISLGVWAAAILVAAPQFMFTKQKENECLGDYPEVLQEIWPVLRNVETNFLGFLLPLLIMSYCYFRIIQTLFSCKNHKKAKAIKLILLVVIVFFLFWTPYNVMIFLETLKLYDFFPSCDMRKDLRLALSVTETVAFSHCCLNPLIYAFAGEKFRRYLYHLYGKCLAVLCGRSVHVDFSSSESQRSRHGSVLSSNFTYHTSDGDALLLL
Sequence of C-C chemokine receptor type 1 (Homo sapiens) (P32246 whole entry): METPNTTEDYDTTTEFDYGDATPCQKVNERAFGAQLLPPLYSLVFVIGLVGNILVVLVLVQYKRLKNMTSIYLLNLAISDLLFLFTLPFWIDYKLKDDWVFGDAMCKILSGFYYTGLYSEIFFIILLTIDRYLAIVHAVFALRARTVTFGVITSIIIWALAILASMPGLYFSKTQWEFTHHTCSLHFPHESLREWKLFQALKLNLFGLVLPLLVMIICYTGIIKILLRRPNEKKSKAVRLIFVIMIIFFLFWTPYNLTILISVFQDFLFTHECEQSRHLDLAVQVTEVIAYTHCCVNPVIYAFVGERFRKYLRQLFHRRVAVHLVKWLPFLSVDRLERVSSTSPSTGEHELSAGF
Sequence of C-X-C chemokine receptor type 6 (Homo sapiens) (O00574 whole entry, looked up): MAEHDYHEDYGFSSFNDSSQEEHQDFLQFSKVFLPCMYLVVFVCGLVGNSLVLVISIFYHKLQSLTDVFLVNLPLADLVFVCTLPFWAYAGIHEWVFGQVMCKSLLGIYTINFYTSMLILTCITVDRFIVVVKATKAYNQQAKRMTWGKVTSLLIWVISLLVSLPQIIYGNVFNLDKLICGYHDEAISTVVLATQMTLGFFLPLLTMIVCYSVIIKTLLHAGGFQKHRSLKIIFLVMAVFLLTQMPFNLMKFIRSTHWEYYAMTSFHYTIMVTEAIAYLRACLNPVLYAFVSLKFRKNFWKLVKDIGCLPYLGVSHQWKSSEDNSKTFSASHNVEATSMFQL
Sequence of C-C chemokine receptor type 4 (Homo sapiens) (P51679 whole entry): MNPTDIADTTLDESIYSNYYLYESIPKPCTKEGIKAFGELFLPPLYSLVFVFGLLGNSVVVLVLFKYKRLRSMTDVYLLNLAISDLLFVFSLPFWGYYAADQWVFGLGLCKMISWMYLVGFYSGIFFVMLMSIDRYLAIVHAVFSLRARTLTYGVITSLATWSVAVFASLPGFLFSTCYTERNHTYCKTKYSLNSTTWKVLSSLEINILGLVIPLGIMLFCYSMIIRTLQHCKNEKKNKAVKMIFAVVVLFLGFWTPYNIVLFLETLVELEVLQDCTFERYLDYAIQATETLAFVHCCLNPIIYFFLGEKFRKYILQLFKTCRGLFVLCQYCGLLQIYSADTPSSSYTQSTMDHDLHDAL
Sequence of C-X-C chemokine receptor type 3 (Homo sapiens) (P49682 whole entry): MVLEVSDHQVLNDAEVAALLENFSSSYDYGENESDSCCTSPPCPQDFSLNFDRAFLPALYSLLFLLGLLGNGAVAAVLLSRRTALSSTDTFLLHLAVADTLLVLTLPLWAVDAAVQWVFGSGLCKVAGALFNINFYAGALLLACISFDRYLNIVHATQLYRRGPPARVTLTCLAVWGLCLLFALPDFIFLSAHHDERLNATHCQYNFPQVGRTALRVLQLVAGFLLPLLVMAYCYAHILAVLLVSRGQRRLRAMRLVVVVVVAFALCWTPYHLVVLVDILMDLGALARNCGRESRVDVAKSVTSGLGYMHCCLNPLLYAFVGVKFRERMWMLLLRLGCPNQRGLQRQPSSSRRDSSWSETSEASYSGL
Sequence of Chemerin-like receptor 1 (Homo sapiens) (Q99788 whole entry): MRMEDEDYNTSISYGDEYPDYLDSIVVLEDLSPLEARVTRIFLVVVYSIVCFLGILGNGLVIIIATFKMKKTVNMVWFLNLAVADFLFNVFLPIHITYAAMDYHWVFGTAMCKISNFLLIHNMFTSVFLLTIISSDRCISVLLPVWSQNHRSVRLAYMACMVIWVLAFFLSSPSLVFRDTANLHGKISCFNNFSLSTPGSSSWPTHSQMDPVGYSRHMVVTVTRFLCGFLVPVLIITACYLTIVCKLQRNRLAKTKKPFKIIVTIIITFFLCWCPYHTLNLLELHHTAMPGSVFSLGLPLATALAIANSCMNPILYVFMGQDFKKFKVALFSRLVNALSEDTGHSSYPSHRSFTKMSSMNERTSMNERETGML
Sequence of Atypical chemokine receptor 3 (Homo sapiens) (P25106 whole entry): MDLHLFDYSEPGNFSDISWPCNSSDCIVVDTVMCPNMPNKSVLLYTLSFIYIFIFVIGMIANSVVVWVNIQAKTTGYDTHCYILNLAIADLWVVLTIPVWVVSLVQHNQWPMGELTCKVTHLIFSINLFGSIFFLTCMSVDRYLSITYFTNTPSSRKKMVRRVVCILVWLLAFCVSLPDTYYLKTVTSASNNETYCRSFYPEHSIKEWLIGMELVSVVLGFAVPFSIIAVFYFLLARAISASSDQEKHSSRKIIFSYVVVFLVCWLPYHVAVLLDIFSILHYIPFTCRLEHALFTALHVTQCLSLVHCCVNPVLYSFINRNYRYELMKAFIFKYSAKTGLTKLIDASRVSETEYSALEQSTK
Sequence of C-C chemokine receptor type 9 (Homo sapiens) (P51686 whole entry): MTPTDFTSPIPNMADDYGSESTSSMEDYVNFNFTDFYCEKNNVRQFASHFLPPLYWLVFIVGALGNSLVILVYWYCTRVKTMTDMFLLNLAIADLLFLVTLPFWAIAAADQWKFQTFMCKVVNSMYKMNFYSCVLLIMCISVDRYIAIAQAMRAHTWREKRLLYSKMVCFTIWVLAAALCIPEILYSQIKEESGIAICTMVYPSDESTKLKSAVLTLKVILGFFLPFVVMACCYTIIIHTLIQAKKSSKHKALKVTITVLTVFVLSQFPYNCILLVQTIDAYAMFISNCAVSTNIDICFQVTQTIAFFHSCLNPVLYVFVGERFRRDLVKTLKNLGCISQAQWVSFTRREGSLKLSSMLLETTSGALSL
Sequence of C-X-C chemokine receptor type 4 (Homo sapiens) (P61073 whole entry): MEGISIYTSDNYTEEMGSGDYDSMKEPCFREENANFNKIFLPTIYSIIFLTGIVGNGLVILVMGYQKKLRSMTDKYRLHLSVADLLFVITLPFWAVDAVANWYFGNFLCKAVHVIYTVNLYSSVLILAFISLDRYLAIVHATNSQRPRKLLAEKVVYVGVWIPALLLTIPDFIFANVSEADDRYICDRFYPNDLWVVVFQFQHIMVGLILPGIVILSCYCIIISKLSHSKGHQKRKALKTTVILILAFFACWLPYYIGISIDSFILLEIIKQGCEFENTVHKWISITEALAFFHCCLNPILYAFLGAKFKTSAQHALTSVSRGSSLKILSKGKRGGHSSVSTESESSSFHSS
Sequence of C-C chemokine receptor type 8 (Homo sapiens) (P51685 whole entry): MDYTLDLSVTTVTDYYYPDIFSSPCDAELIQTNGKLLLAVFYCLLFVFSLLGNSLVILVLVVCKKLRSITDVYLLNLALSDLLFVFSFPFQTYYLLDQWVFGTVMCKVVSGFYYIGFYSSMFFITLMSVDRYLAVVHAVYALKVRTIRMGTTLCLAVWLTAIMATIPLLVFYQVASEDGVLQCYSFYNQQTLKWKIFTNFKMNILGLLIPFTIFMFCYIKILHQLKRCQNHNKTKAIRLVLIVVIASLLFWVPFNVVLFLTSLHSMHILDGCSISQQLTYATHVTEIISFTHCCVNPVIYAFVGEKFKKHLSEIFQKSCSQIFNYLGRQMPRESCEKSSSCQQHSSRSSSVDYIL
Sequence of C-X-C chemokine receptor type 5 (Homo sapiens) (P32302 whole entry): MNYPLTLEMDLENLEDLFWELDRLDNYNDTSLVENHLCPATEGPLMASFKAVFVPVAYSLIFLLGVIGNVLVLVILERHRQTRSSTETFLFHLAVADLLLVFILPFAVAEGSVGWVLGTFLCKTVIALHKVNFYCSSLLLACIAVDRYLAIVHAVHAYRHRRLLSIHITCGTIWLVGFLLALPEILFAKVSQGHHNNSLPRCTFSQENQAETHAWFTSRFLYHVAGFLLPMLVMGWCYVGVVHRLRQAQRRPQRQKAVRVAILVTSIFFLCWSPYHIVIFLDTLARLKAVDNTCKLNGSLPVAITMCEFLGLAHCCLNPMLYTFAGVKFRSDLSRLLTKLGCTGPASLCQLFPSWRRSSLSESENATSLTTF
Sequence of C-C chemokine receptor type 6 (Homo sapiens) (P51684 whole entry): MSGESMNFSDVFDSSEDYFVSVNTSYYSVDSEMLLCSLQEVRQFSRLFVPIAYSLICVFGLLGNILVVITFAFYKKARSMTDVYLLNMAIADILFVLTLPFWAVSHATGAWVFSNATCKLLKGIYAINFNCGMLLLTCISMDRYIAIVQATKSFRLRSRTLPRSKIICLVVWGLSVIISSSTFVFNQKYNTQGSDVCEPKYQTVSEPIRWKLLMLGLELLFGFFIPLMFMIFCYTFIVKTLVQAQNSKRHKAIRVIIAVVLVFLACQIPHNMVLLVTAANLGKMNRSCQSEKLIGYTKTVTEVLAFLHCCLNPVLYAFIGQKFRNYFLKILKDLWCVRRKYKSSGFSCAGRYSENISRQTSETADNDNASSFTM

Cc1c(F)cccc1NC(=O)Nc1ccc2c(c1O)S(=O)(=O)CCC2
AUC(0-t) at 48 h [1]: 218 ng·h/mL | bioavailability [2]: 6.1% | Activity (Neutrophil): Active | Activity [3]: < 10% | Activity [4]: 17% | Activity [5]: < 10% | AUC(0-inf) [6]: 229 ng·h/mL | Activity [7]: 12% | Activity [8]: < 10% | IC50 [9]: 95 nM | IC50 (BXPC-3): > 10000 nM | Activity (Panc02 [10]): 30.3% | Activity [11]: < 10% | Activity [12]: < 10% | Activity [13]: < 10% | Cmax [14]: 19 ng/mL | Activity (Panc02 [15]): 15.6% | half-life [16]: 4.11 h | Activity (Panc02 [17]): Non-Toxic | Activity [18]: < 10% | Activity [19]: 49% | Ki [20]: 1240 nM | clearance [21]: 137 mL/min/kg | IC50 (MIA PaCa-2): > 10000 nM | Activity [22]: < 10% | Activity [23]: < 10% | Activity [24]: < 10% | Activity [25]: < 10% | Vz [26]: 939.87 L/kg | Activity [27]: 10% | Tmax [28]: 1.8 min | Activity (Panc02 [29]): Active
